As usually defined, the DC50 is the concentration giving 50% degradation. A high value points to degradation only at high concentration.

Molecules are shown by their SMILES.

This assay addresses T1, IRAK4 (Homo sapiens, UniProt Q9NWZ3).
T1 construct: endogenous in cells; host or cells: OCI-LY10
T1 sequence (Q9NWZ3 1-460): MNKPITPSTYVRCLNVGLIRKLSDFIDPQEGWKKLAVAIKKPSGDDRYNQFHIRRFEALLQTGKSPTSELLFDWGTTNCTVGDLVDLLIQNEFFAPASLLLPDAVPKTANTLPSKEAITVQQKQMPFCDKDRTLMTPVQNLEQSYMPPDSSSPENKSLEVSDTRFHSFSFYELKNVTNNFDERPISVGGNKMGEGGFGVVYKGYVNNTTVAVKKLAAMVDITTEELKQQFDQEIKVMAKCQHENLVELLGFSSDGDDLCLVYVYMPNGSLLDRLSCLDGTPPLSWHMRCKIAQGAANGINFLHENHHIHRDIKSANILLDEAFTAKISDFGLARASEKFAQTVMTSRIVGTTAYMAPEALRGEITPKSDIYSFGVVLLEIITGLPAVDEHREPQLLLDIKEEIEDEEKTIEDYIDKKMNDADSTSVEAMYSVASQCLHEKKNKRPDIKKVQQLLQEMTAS
As to the kind of experiment: IRAK4 MSD degradation in OCI-LY10. Format: cell-based. The note with it: OCI-LY10 cells, 24 hrs, Meso Scale Discovery. An outline of the steps:
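Remaining IRAK4 protein measured by Meso Scale Discovery electrochemiluminescence sandwich assay on lysates of OCI-LY10 cells. Cells were exposed for 4 to 24 hours (37° C., 5% CO2) to eight 1:3-diluted concentrations starting at 1 to 10 μM. DC50 derived by three-parameter logistic fitting.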
As to `CN(C[C@H]1CC[C@H](n2cc3cc(NC(=O)c4cccc(C(F)(F)F)n4)ccc3n2)CC1)C1CCN(c2cccc3c2n(C)c(=O)n3C2CCC(=O)NC2=O)C[C@@H]1F` (stereo partly shown) [I-32], the DC50 was below 0.01 µM.
`CN(C[C@H]1CC[C@H](n2cc3cc(NC(=O)c4cccc(C(F)(F)F)n4)ccc3n2)CC1)[C@H]1CCN(c2cccc3c2n(C)c(=O)n3C2CCC(=O)NC2=O)C[C@@H]1F` (stereo partly shown) [I-33]: the DC50 fell in the range of 0.01 to 0.1 µM.
For `CN(C[C@H]1CC[C@H](n2cc3cc(NC(=O)c4cccc(C(F)(F)F)n4)ncc3n2)CC1)[C@H]1CCN(c2cccc3c2n(C)c(=O)n3C2CCC(=O)NC2=O)C[C@H]1F` (stereo partly shown) [I-34], the DC50 was below 0.01 µM.
Compound `CN(C[C@H]1CC[C@H](n2cc3cc(NC(=O)c4cccc(C(F)(F)F)n4)ncc3n2)CC1)[C@@H]1CCN(c2cccc3c2n(C)c(=O)n3C2CCC(=O)NC2=O)C[C@@H]1F` (stereo partly shown) [I-35] returned a DC50 below 0.01 µM.
In turn, `CC(C)Oc1cc2nc([C@H]3CC[C@H](CN4CCC(c5ccc6c(c5)n(C)c(=O)n6C5CCC(=O)NC5=O)CC4)CC3)cn2cc1C(=O)Nc1cccn([C@H]2C[C@H]2F)c1=O` (stereo partly shown) [I-37] yielded a DC50 below 0.01 µM.
Regarding `O=C1CCC(c2ccc(N3CC(CO[C@@H]4CCN(C[C@H]5CC[C@H](n6cc(NC(=O)c7cnn8ccc(N9C[C@H]%10C[C@@H]9CO%10)nc78)c(C(F)F)n6)CC5)C[C@@H]4F)C3)cc2Cl)C(=O)N1` (stereo partly shown) [I-38], the DC50 is below 0.01 µM.
With `Cn1c(NC(=O)c2cccc(C(F)(F)F)n2)cc2cn([C@H]3CC[C@H](CN4CC[C@@H](c5cccc6c5n(C)c(=O)n6C5CCC(=O)NC5=O)C(F)(F)C4)CC3)nc2c1=O` (stereo partly shown) [I-39] the figure was above 0.2 µM; with `CN(C[C@H]1CC[C@H](n2cc(NC(=O)c3cnn4ccc(N5CCCC5)nc34)c(C(F)F)n2)CC1)[C@@H]1CCN(c2cccc3c2n(C)c(=O)n3C2CCC(=O)NC2=O)C[C@H]1F` (stereo partly shown) [I-40], below 0.01 µM.
Compound `Cc1nn(C2CCC(=O)NC2=O)c2cccc(N3CCN(C[C@@H]4COC5(C4)CN(C[C@H]4CC[C@H](n6cc(NC(=O)c7cnn8ccc(N9C[C@H]%10C[C@@H]9CO%10)nc78)c(C(F)F)n6)CC4)C5)CC3)c12` (stereo partly shown) [I-42] came in with a DC50 below 0.01 µM.
For `Cn1c(NC(=O)c2cccc(C(F)(F)F)n2)cc2cn([C@H]3CC[C@H](CN4CC[C@H](c5cccc6c5n(C)c(=O)n6C5CCC(=O)NC5=O)[C@@H](F)C4)CC3)nc2c1=O` (stereo partly shown) [I-43] the value was above 0.2 µM; for `COc1nc(NC(=O)c2cccc(C(F)F)n2)cc2cn([C@H]3CC[C@H](CN4CC[C@H](c5cccc6c5n(C)c(=O)n6C5CCC(=O)NC5=O)C(F)(F)C4)CC3)nc12` (stereo partly shown) [I-44], 0.01 to 0.1 µM.
With `Cc1nn(C2CCC(=O)NC2=O)c2cccc(N3CC(CN4CCN(C[C@H]5CC[C@H](n6cc(NC(=O)c7cnn8ccc(N9C[C@H]%10C[C@@H]9CO%10)nc78)c(C(F)F)n6)CC5)CC4)C3)c12` (stereo partly shown) [I-45], the DC50 is below 0.01 µM.
For `COc1cc2nn([C@H]3CC[C@H](CN4CCN(c5cccc6c5c(C)nn6C5CCC(=O)NC5=O)CC4)CC3)cc2cc1NC(=O)c1cncc(C#N)c1` (stereo partly shown) [I-48] the value was 0.01 to 0.1 µM; for `COc1cc2nn([C@H]3CC[C@H](CN4CCC5(CC4)CCN(c4cccc6c4c(C)nn6C4CCC(=O)NC4=O)CC5)CC3)cc2cc1NC(=O)c1cncc(C#N)c1` (stereo partly shown) [I-49], 0.01 to 0.1 µM.
For the compound `COc1cc2nn([C@H]3CC[C@H](CN4CCC5(CC4)CCN(c4cccc6c4c(C)nn6C4CCC(=O)NC4=O)CC5)CC3)cc2cc1NC(=O)c1cncc(C)c1` (stereo partly shown) [I-50], the DC50 was in the range of 0.01 to 0.1 µM.
Compound `C[C@H]1CN(c2ccn3ncc(C(=O)Nc4cn([C@H]5CC[C@H](CN(C)[C@H]6CCN(c7cccc8c7n(C)c(=O)n8C7CCC(=O)NC7=O)C[C@H]6F)CC5)nc4C(F)F)c3n2)CCO1` (stereo partly shown) [I-51] showed a DC50 below 0.01 µM.
For `Cc1nn(C2CCC(=O)NC2=O)c2cccc([C@H]3CCN(C[C@H]4CC[C@H](n5cc6cc(NC(=O)c7cccc(C(F)(F)F)n7)ncc6n5)CC4)C[C@@H]3F)c12` (stereo partly shown) [I-53], the DC50 fell in the range of 0.01 to 0.1 µM.
For `Cc1nn(C2CCC(=O)NC2=O)c2cccc(N3CC(N4CCN([C@H]5CC[C@H](n6cc(NC(=O)c7cnn8ccc(N9C[C@H]%10C[C@@H]9CO%10)nc78)c(C(F)F)n6)CC5)CC4)C3)c12` (stereo partly shown) [I-54], the DC50 was below 0.01 µM.
As for `O=C1CCC(c2ccc(N3CC(CO[C@H]4CCN(C[C@H]5CC[C@H](n6cc(NC(=O)c7cnn8ccc(N9C[C@H]%10C[C@@H]9CO%10)nc78)c(C(F)F)n6)CC5)C[C@@H]4F)C3)cc2Cl)C(=O)N1` (stereo partly shown) [I-55], the DC50 lay in the range of 0.01 to 0.1 µM.
`Cc1nn(C2CCC(=O)NC2=O)c2cccc(N3CC(CO[C@@H]4CCN(C[C@H]5CC[C@H](n6cc(NC(=O)c7cnn8ccc(N9C[C@H]%10C[C@@H]9CO%10)nc78)c(C(F)F)n6)CC5)C[C@@H]4F)C3)c12` (stereo partly shown) [I-56] showed a DC50 below 0.01 µM.
`Cc1nn(C2CCC(=O)NC2=O)c2cccc(N3CC(N4CCN([C@H]5CC[C@@H](n6cc(NC(=O)c7cnn8ccc(N9C[C@H]%10C[C@@H]9CO%10)nc78)c(C(F)F)n6)CC5)CC4)C3)c12` (stereo partly shown) [I-57] came in with a DC50 above 0.2 µM.
Take `CN(C[C@H]1CC[C@H](n2cc3cc(NC(=O)c4cccc(C(F)(F)F)n4)c(C#N)cc3n2)CC1)[C@@H]1CCN(c2cccc3c2n(C)c(=O)n3C2CCC(=O)NC2=O)C[C@H]1F` (stereo partly shown) [I-58]: the DC50 was below 0.01 µM.
For `O=C1CCC(Nc2ccc(N3CC(CN4CCN(C[C@H]5CC[C@H](n6cc(NC(=O)c7cnn8ccc(N9C[C@H]%10C[C@@H]9CO%10)nc78)c(C(F)F)n6)CC5)CC4)C3)cc2)C(=O)N1` (stereo partly shown) [I-61] the value was 0.01 to 0.1 µM.
For `CN(c1cccc(N2CCN(C[C@H]3CC[C@H](n4cc5cc(NC(=O)c6cccc(C(F)(F)F)n6)ncc5n4)CC3)CC2)c1)C1CCC(=O)NC1=O` (stereo partly shown) [I-62], the DC50 is 0.1 to 0.2 µM.
For the compound `Cn1c(=O)n(C2CCC(=O)NC2=O)c2cccc([C@H]3CCN(C[C@H]4CC[C@H](n5cc6cc(NC(=O)c7cccc(C(F)(F)F)n7)c(C(C)(C)O)cc6n5)CC4)C[C@@H]3F)c21` (stereo partly shown) [I-63], the DC50 is below 0.01 µM.
`CN(C[C@H]1C[C@@H](n2cc(NC(=O)c3cnn4ccc(N5C[C@H]6C[C@@H]5CO6)nc34)c(C(F)F)n2)C1)[C@@H]1CCN(c2cccc3c2n(C)c(=O)n3C2CCC(=O)NC2=O)C[C@@H]1F` (stereo partly shown) [I-64] returned a DC50 below 0.01 µM.
Turning to `CN(C[C@H]1C[C@@H](n2cc(NC(=O)c3cnn4ccc(N5C[C@H]6C[C@@H]5CO6)nc34)c(C(F)F)n2)C1)[C@H]1CCN(c2cccc3c2n(C)c(=O)n3C2CCC(=O)NC2=O)C[C@H]1F` (stereo partly shown) [I-65], the DC50 was below 0.01 µM.
In the case of `O=C1CCN(c2cncc3c(N4CC(O)(CN5CCN(C[C@H]6CC[C@H](n7cc(NC(=O)c8cnn9ccc(N%10C[C@H]%11C[C@@H]%10CO%11)nc89)c(C(F)F)n7)CC6)CC5)C4)cccc23)C(=O)N1` [I-67], the DC50 is below 0.01 µM.
`CN(C[C@H]1CC[C@H](n2cc3cc(NC(=O)c4cccc(C(F)(F)F)n4)c(C(C)(C)O)cc3n2)CC1)[C@H]1CCN(c2cccc3c2n(C)c(=O)n3C2CCC(=O)NC2=O)C[C@@H]1F` (stereo partly shown) [I-68] yielded a DC50 below 0.01 µM.
Consider `CN(C[C@H]1CC[C@H](n2cc3cc(NC(=O)c4cccc(C(F)(F)F)n4)c(C(C)(C)O)cc3n2)CC1)[C@@H]1CCN(c2cccc3c2n(C)c(=O)n3C2CCC(=O)NC2=O)C[C@@H]1F` (stereo partly shown) [I-69], for which the DC50 is below 0.01 µM.
`CN(C[C@H]1CC[C@H](n2cc3cc(NC(=O)c4cccc(C(F)(F)F)n4)c(C(C)(C)O)cc3n2)CC1)[C@H]1CCN(c2cccc3c2n(C)c(=O)n3C2CCC(=O)NC2=O)C[C@H]1F` (stereo partly shown) [I-70]: the DC50 is below 0.01 µM.
`O=C1CCC(c2noc3c(NC(=O)CN4CCN(C[C@H]5CC[C@H](n6cc7cc(NC(=O)c8cccc(C(F)(F)F)n8)ncc7n6)CC5)CC4)cccc23)C(=O)N1` (stereo partly shown) [I-71] yielded a DC50 of 0.01 to 0.1 µM.
Regarding `O=C1CCC(Nc2ccc(N3CC(O)(CN4CCN(C[C@H]5CC[C@H](n6cc(NC(=O)c7cnn8ccc(N9C[C@H]%10C[C@@H]9CO%10)nc78)c(C(F)F)n6)CC5)CC4)C3)cc2)C(=O)N1` (stereo partly shown) [I-72], the DC50 lay in the range of 0.01 to 0.1 µM.
For `O=C1CCN(c2cncc3c(N4CC(CN5CCN(C[C@H]6CC[C@H](n7cc(NC(=O)c8cnn9ccc(N%10C[C@H]%11C[C@@H]%10CO%11)nc89)c(C(F)F)n7)CC6)CC5)C4)cccc23)C(=O)N1` [I-74] the value was below 0.01 µM; for `CC(C)(O)c1cc2nn([C@H]3CC[C@H](CN4CCN(c5ccc(C6CCC(=O)NC6=O)c(Cl)c5)CC4)CC3)cc2cc1NC(=O)c1cccc(C(F)(F)F)n1` (stereo partly shown) [I-76], below 0.01 µM.
Regarding `CC(C)(O)c1cc2nn([C@H]3CC[C@H](CN4CCN(c5cccc(NC6CCC(=O)NC6=O)c5)CC4)CC3)cc2cc1NC(=O)c1cccc(C(F)(F)F)n1` (stereo partly shown) [I-77], the DC50 fell in the range of 0.01 to 0.1 µM.
For `COc1cc2nn([C@H]3CC[C@H](CN(C)[C@H]4CCN(c5cccc6c5n(C)c(=O)n6C5CCC(=O)NC5=O)C[C@@H]4F)CC3)cc2cc1NC(=O)c1cccc(C(F)(F)F)n1` (stereo partly shown) [I-80] the value was below 0.01 µM.
`COc1cc2nn([C@H]3CC[C@H](CN(C)[C@@H]4CCN(c5cccc6c5n(C)c(=O)n6C5CCC(=O)NC5=O)C[C@@H]4F)CC3)cc2cc1NC(=O)c1cccc(C(F)(F)F)n1` (stereo partly shown) [I-81] displayed a DC50 below 0.01 µM.
Take `COc1cc2nn([C@H]3CC[C@H](CN(C)[C@H]4CCN(c5cccc6c5n(C)c(=O)n6C5CCC(=O)NC5=O)C[C@H]4F)CC3)cc2cc1NC(=O)c1cccc(C(F)(F)F)n1` (stereo partly shown) [I-82]: the DC50 is below 0.01 µM.
As to `N#Cc1cncc(C(=O)Nc2cc3cn([C@H]4CC[C@H](CN5CCN(CC(=O)Nc6cccc7c(C8CCC(=O)NC8=O)noc67)CC5)CC4)nc3cn2)c1` (stereo partly shown) [I-84], the DC50 was above 0.2 µM.

Values taken from patent US20250059164A1, “IRAK DEGRADERS AND USES THEREOF” (Kymera Therapeutics, Inc., priority 2023, published 2025).
